Data on 81 compounds can be found in PubChem BioAssay AID1205 (EPA DSSTox, 2008).

Calls of active or inactive are those of the source.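 How the source made its calls: active means tumour findings in long-term animal cancer tests in more than one sex, species or organ; inactive means no tumour finding and more than one negative test.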

A short description of this data set: DSSTox (CPDBAS) Carcinogenic Potency Database Summary MultiCellCall Results. To be noted: animal carcinogenicity bioassays, multi-cell call summary. An excerpt: The Carcinogenic Potency Database (CPDB) is a unique and widely used international resource of the results of over 6500 chronic, long-term animal cancer tests on over 1500 chemical substances. The CPDB provides easy access to the bioassay literature, with qualitative and quantitative analyses of both positive and negative experiments that have been published over the past 50 years in the general literature and by the National Cancer Institute/National Toxicology Program. The CPDB standardizes the diverse literature of cancer bioassays that vary widely in protocol, histopathological examination and nomenclature, and in the published author's choices of what information to provide in their papers. Results are reported in the CPDB for tests in rats, mice, hamsters, dogs, and nonhuman primates, and are based on the most positive result among all experiments for each sex-species. The DSSTox CPDBAS (all species) file incorporates data from the CPDB Summary Tables for the full list of over 1500 chemical substances tested in at least one species. A summary MultiCellCall, based on experimental bioassay results of one or more species, is provided in the DSSTox CPDBAS file (see Source URL) for more than 1150 chemical substances.
Associated TD50 values and tumor site details for the relevant species/sex experiment supporting the overall CPDBAS MultiSiteCall are provided in the full DSSTox CPDBAS file (see Comment) and the corresponding CPDBAS Species Bioassay in PubChem. ActivityScore is computed as follows: multispecies=50, multisex=30, multisite=20, with combination scores computed as sums of these values, e.g. multispecies+multisite=70.
On to `CC(C)COC(=O)c1ccc(O)cc1`, for which the outcome is “inactive; multisex inactive”.
In the case of `C=O`, the outcome was “active; multisite active; multisex active; multispecies active”.
For `C=CCN(CC(C)O)N=O` (stereo unspecified), the outcome was “active; multisite active”.
As for `O=C1C(Cl)=C(Cl)C(=O)c2ccccc21`, the entry is “inactive; multisex inactive”; as for `CC(=O)Nc1ccc(N=Nc2cc(C)ccc2O)cc1`, “active; multisex active; multispecies active”; as for `Cc1cccc(OCC(O)CNC(C)(C)C)c1C` (stereo unspecified), “inactive; multisex inactive”.
Under `Nc1ccc2ccccc2c1` stands “active; multisite active; multisex active; multispecies active”; under `CCn1nc(C)c2c1C(c1ccccc1)=NCC(=O)N2`, “active; multisex active”; under `O=C(O)c1nn(Cc2ccc(Cl)cc2Cl)c2ccccc12`, “inactive; multisex inactive”.
As for `CC(CN1c2ccccc2Sc2ccccc21)N(C)C` (stereo unspecified), the entry is “inactive; multisex inactive; multispecies inactive”; as for `CCCCC1(COC(=O)CCC(=O)O)C(=O)N(c2ccccc2)N(c2ccccc2)C1=O`, “inactive; multisex inactive”; as for `Clc1c(Cl)c(Cl)c(Cl)c(Cl)c1Cl`, “active; multisite active; multisex active; multispecies active”.
Consider `N`, for which the outcome was “inactive; multisex inactive”.
Consider `OC[C@@H](O)[C@@H](O)[C@H](O)[C@H](O)CO`, for which the outcome is “inactive; multisex inactive; multispecies inactive”.
Under `C[C@H]([C@H](O)CCC(C)(C)O)[C@H]1CC[C@@]2(O)C3=CC(=O)[C@@H]4C[C@@H](O)[C@@H](O)C[C@]4(C)[C@H]3CC[C@]12C` stands “active; multisite active; multisex active”; under `C/C=C/c1ccc(OC)cc1`, “inactive; multisex inactive”.
For the compound `C/C=N/N(C)C=O`, the outcome was “active; multisite active; multisex active”.
As for `CC(=O)OC/C=C(\C)CCC=C(C)C`, the outcome is “inactive; multisex inactive; multispecies inactive”.
As for `O=C(Oc1ccccc1)Oc1ccccc1`, the entry is “inactive; multisex inactive”.
As for `Cc1nc(N)cc2[nH]c3ccccc3c12`, the entry is “active; multisite active; multisex active; multispecies active”; as for `CN(C)N`, “active; multisite active; multisex active; multispecies active”.
As for `ClCC(Br)CBr` (stereo unspecified), the entry is “active; multisite active; multisex active; multispecies active”.
For `NC(=O)OCC(COC(N)=O)c1ccccc1`, the outcome was “active; multisite active; multisex active; multispecies active”.
Take `CCN=[N+](C)[O-]`: the outcome is “active; multisite active”.
Under `Cc1noc(NS(=O)(=O)c2ccc(N)cc2)c1C` stands “inactive; multisex inactive; multispecies inactive”; under `Oc1ccccc1`, “inactive; multisex inactive; multispecies inactive”.
Under `OC[P+](CO)(CO)CO` stands “inactive; multisex inactive; multispecies inactive”; under `C=C/C=N/O`, “inactive; multisex inactive”; under `O=C(O)c1cc(N=Nc2ccc(S(=O)(=O)Nc3ccccn3)cc2)ccc1O`, “active; multisite active; multisex active; multispecies active”.
For the compound `CC(=O)Oc1c(C)c(C)c2c(c1C)CCC(C)(CCCC(C)CCCC(C)CCCC(C)C)O2` (stereo unspecified), the outcome is “inactive; multisex inactive”.
As for `[O-][Br+2]([O-])O`, the outcome is “active; multisite active; multisex active; multispecies active”.
Under `O=C(O)CCCC/C=C(\c1ccccc1)c1cccnc1` stands “inactive; multisex inactive; multispecies inactive”.
For the compound `O=c1ccc2ccccc2o1`, the outcome is “active; multisite active; multisex active; multispecies active”.
Under `Clc1ccc(C(c2ccc(Cl)cc2)C(Cl)(Cl)Cl)cc1` stands “active; multisite active; multisex active; multispecies active”; under `CC(Oc1cc(Cl)ccc1Cl)C(=O)O` (stereo unspecified), “inactive; multisex inactive”; under `CCCCN(N)C=O`, “active; multisite active; multisex active”.
As for `O=[N+]([O-])/C=C/c1ccccc1`, the entry is “inactive; multisex inactive; multispecies inactive”; as for `CCOC(=O)CC(SP(=S)(OC)OC)C(=O)OCC` (stereo unspecified), “inactive; multisex inactive; multispecies inactive”; as for `CC(=O)CN(N=O)C(N)=O`, “active; multisex active”.
As for `FCCl`, the entry is “active; multisex active”; as for `CC(=O)NNC(C)=O`, “inactive; multisex inactive”; as for `C=CCN(CC(C)=O)N=O`, “active; multisite active; multispecies active”.
`Cn1cc(C(=O)[C@@H]2CCc3nc[nH]c3C2)c2ccccc21`: the outcome was “inactive; multisex inactive; multispecies inactive”.
As for `CC1CC(C)(C)CC(OOC(C)(C)C)(OOC(C)(C)C)C1` (stereo unspecified), the entry is “inactive; multisex inactive”; as for `CCC1(c2ccccc2)C(=O)N=C(O)NC1=O` (stereo unspecified), “active; multisex active; multispecies active”.
With `FC(F)=C(F)F`, the outcome is “active; multisite active; multisex active; multispecies active”.
Under `CCN(CC)CCCNC(=O)Cn1ncc(-c2ccccc2)c1-c1ccccc1` stands “inactive; multisex inactive”.
Turning to `OC[C@H]1O[C@@](CO)(O[C@H]2O[C@H](CO)[C@@H](O)[C@H](O)[C@H]2O)[C@@H](O)[C@@H]1O`, the outcome is “inactive; multisex inactive”.
Regarding `COC(=O)C1=CCCN(C)C1`, the outcome is “active; multisite active; multisex active”.
For `CC1=C(/C=C/C(C)=C/C=C/C(C)=C/C=C/C=C(C)/C=C/C=C(C)/C=C/C2=C(C)CCCC2(C)C)C(C)(C)CCC1`, the outcome was “inactive; multisex inactive; multispecies inactive”.
As for `O=C(O)CCC(=O)O`, the entry is “inactive; multisex inactive”; as for `CCC1(c2ccccc2)C(=O)NCNC1=O`, “active; multisite active; multisex active”.
Under `Nc1ccc(Sc2ccc(N)cc2)cc1` stands “active; multisite active; multisex active; multispecies active”; under `NC(=O)N(CC(=O)O)N=O`, “active; multisite active; multisex active”.
As for `COc1ccccc1N1CCN(CCCNc2cc(=O)n(C)c(=O)n2C)CC1`, the entry is “inactive; multisex inactive”.
Turning to `Oc1c(Cl)cc(Cl)c(Cl)c1Cc1c(O)c(Cl)cc(Cl)c1Cl`, the outcome was “inactive; multisex inactive; multispecies inactive”.
Turning to `COc1cc(/C=N/NC(=O)c2ccncc2)ccc1O`, the outcome was “active; multisite active”.
As to `COc1ccc(O)cc1`, the outcome is “active; multisex active”.
Under `O=C1CCO1` stands “active; multisex active; multispecies active”.
As to `CCN(CC(F)(F)F)N=O`, the outcome was “active; multisite active”.
Under `C#C[C@]1(OC(C)=O)CC[C@H]2[C@@H]3CCC4=CC(=O)CC[C@@H]4[C@H]3CC[C@@]21C` stands “active; multisite active; multispecies active”.
Regarding `O.O.O.O.O.O.O=S(=O)([O-])[O-].[Ni+2]`, the outcome is “inactive; multisex inactive; multispecies inactive”.
With `Nc1ccccc1`, the outcome is “active; multisite active; multisex active”.
On to `CN(C)CCN(Cc1cccs1)c1ccccc1`, for which the outcome was “inactive; multisex inactive”.
Under `OC[C@H]1O[C@H](O[C@]2(CCl)O[C@H](CCl)[C@@H](O)[C@@H]2O)[C@H](O)[C@@H](O)[C@H]1Cl` stands “inactive; multisex inactive”; under `S=P(N1CC1)(N1CC1)N1CC1`, “active; multisite active; multisex active; multispecies active”.
In the case of `CCCCCCCCCCCCCCN(C)N=O`, the outcome is “active; multisite active”.
Regarding `CC(=O)[O][Hg][c]1ccccc1`, the outcome is “inactive; multisex inactive”.
As to `O=C(NCC1CCCCN1)c1cc(OCC(F)(F)F)ccc1OCC(F)(F)F` (stereo unspecified), the outcome was “inactive; multisex inactive; multispecies inactive”.
In the case of `Cc1c(N(C)CS(=O)(=O)O)c(=O)n(-c2ccccc2)n1C`, the outcome was “active; multisex active”.
For the compound `C=CCCl`, the outcome was “inactive; multisex inactive”.
As to `CCCN(CCC)N=O`, the outcome was “active; multisite active; multispecies active”.
`CC(O)CN(CCO)N=O` (stereo unspecified): the outcome is “active; multisite active”.
On to `BrC(Br)Br`, for which the outcome was “active; multisex active”.
As for `O=C(O)c1ccc(N=Nc2ccc(O)c(C(=O)O)c2)cc1`, the entry is “inactive; multisex inactive; multispecies inactive”; as for `OCC(CO)N[C@H]1C[C@](O)(CO)[C@@H](O)[C@H](O)[C@H]1O`, “inactive; multisex inactive; multispecies inactive”.
On to `CCOP(=S)(OCC)Oc1ccc([N+](=O)[O-])cc1`, for which the outcome is “inactive; multisex inactive; multispecies inactive”.
As for `O=NN1CCC[C@H]1C(=O)O`, the entry is “inactive; multisex inactive”.
Consider `C=CC(=C)C`, for which the outcome is “active; multisite active; multisex active; multispecies active”.
Take `O=CNNc1nc(-c2ccc([N+](=O)[O-])o2)cs1`: the outcome was “active; multisite active; multisex active; multispecies active”.
Under `Oc1ccc2ccccc2c1N=Nc1ccccc1` stands “active; multisex active”.
